The target in assay [1] is T1, isolated kinase domain of the human FLT3 receptor (a.a. 571-993) (Homo sapiens, UniProt P36888).
T1 construct: human FLT3 receptor (a.a. 571-993)
T1 sequence (P36888 571-993): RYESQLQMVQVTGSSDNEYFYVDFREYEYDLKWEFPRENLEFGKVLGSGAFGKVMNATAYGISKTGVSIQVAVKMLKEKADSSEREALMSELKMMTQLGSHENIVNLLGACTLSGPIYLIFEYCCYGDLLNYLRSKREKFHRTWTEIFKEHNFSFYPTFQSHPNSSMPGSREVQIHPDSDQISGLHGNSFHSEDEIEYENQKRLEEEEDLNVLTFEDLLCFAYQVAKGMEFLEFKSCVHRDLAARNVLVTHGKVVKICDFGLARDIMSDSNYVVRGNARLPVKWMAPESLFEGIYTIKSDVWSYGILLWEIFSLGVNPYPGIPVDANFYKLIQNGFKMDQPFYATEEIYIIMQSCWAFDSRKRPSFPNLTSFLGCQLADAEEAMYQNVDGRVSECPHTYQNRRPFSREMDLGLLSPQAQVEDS
The experiment in a line: FLT3 fluorescence polarization kinase assay. Type of assay: biochemical. As to conditions: 150 uM ATP; uncertainty ±10%. As for the experimental part:
The FLT3 FP assay utilizes the fluorescein-labeled phosphopeptide and the anti-phosphotyrosine antibody included in the Panvera Phospho-Tyrosine Kinase Kit (Green) supplied by Invitrogen. When FLT3 phosphorylates polyGlu4Tyr, the fluorescein-labeled phosphopeptide is displaced from the anti-phosphotyrosine antibody by the phosphorylated poly Glu4Tyr, thus decreasing the FP value. The FLT3 kinase reaction is incubated at room temperature for 30 minutes under the following conditions: 10 nM FLT3 571-993, 20 ug/mL poly Glu4Tyr, 150 uM ATP, 5 mM MgCl2, 1% compound in DMSO. The kinase reaction is stopped with the addition of EDTA. The fluorescein-labeled phosphopeptide and the anti-phosphotyrosine antibody are added and incubated for 30 minutes at room temperature.
All data points are an average of triplicate samples. Inhibition and IC50 data analysis was done with GraphPad Prism using a non-linear regression fit with a multiparamater, sigmoidal dose-response (variable slope) equation.

The test system of assay [2] is MV4-11 cells. The assay can be described thus: Inhibition of MV4-11 cell proliferation (CellTiterGlo, 72 h). Type of assay: cell-based. Particulars: Homo sapiens; 72 h growth inhibition; uncertainty ±20%. The protocol:
MV4-11 cells cannot grow and survive without active FLT3ITD.
To measure proliferation inhibition by test compounds, the luciferase based CellTiterGlo reagent (Promega), which quantifies total cell number based on total cellular ATP concentration, was used. Cells are plated at 10,000 cells per well in 100 ul of in RPMI media containing penn/strep, 10% FBS and 1 ng/ml GM-CSF or 1 ng/ml IL-3 for MV4-11 and Baf3 cells respectively.
Compound dilutions or 0.1% DMSO (vehicle control) are added to cells and the cells are allowed to grow for 72 hours at standard cell growth conditions (37° C., 5% CO2). For activity measurements in MV4-11 cells grown in 50% plasma, cells were plated at 10,000 cells per well in a 1:1 mixture of growth media and human plasma (final volume of 100 μL). To measure total cell growth an equal volume of CellTiterGlo reagent was added to each well, according to the manufacturer's instructions, and luminescence was quantified. Total cell growth was quantified as the difference in luminescent counts (relative light units, RLU) of cell number at Day 0 compared to total cell number at Day 3 (72 hours of growth and/or compound treatment). One hundred percent inhibition of growth is defined as an RLU equivalent to the Day 0 reading. Zero percent inhibition was defined as the RLU signal for the DMSO vehicle control at Day 3 of growth. All data points are an average of triplicate samples. […] Inhibition and IC50 data analysis was done with GraphPad Prism using a non-linear regression fit with a multiparamater, sigmoidal dose-response (variable slope) equation.
MV4-11 cells express the FLT3 internal tandem duplication mutation, and thus are entirely dependent upon FLT3 activity for growth. […] In contrast, the Baf3 cell proliferation is driven by the cytokine IL-3 and thus are used as a non-specific toxicity control for test compounds.

Drawing on patent publication US20070004660A1, “Synergistic Modulation of Flt3 Kinase Using Alkylquinolines and Alkylquinazolines” (priority 2005, published 2007), this text covers IC50 for two compounds.

With `O=C(Nc1ccc(N2CCCC2)cc1)N1CCC(c2ncnc3cc(N4CC[C@H](O)C4)ccc23)CC1` [Example 129, (S)-4-[7-(3-Hydroxy-pyrrolidin-1-yl)-quinazolin-4-yl]-piperidine-1-carboxylic acid (4-pyrrolidin-1-yl-phenyl)-amide], the IC50 in assay [1] was determined as 1 nM; in assay [2], 9 nM.

Take `COc1cc2ncnc(C3CCN(C(=O)Nc4ccc(OC(F)(F)F)cc4)CC3)c2cc1OC` [Example 50, 4-(6,7-Dimethoxy-quinazolin-4-yl)-piperidine-1-carboxylic acid (4-trifluoromethoxy-phenyl)-amide]: the IC50 in assay [1] was 83 nM; in assay [2] it was 131 nM.
